The target of test [1] is T1, Leukotriene B4 receptor 1 (Homo sapiens, UniProt Q15722). Briefly: Inhibitory concentration against human leukotriene B4 receptor using competing agent [3H]-LTB4 as radioligand in pH 7.2 buffer, for 1 hr at 37 degree C.
The target of test [2] is T1, Leukotriene B4 receptor 1. Briefly: Inhibitory concentration against human leukotriene B4 receptor using competing agent [111In]-(17)] as radioligand in pH 7.2 buffer, for 1 hr at 37 degree C; (n=2).
The target of test [3] is T1, Leukotriene B4 receptor 1. Briefly: Inhibitory concentration against human leukotriene B4 receptor using competing agent [3H]-LTB4 as radioligand in pH 7.2 buffer, for 1 h at 37 degree C; (n=2).
For test [4], the target named is T1, Leukotriene B4 receptor 1. Briefly: Inhibitory concentration against human leukotriene B4 receptor using competing agent [3H]-LTB4 as radioligand in pH 7.2 buffer upon incubation for 1 hr at 37 degree C; (n=4).

Structures are written as SMILES.

T1 sequence (Q15722 whole entry): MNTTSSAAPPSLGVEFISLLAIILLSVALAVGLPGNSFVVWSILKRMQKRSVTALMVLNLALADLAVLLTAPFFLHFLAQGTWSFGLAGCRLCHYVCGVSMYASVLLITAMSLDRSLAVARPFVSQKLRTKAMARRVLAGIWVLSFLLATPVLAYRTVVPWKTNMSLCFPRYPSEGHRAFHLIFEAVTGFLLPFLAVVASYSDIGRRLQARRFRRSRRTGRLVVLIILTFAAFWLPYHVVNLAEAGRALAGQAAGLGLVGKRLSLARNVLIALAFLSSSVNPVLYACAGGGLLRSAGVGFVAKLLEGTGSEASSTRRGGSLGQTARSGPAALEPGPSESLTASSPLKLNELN

A word on the IC50: it is the point on the concentration scale where inhibition reaches its midpoint. Low values mean inhibition by little substance, high ones a need for much substance. For the compound `CC(C)(CCCCOc1cc(-c2ccccc2)cc(-c2ccccc2)n1)c1nnn[nH]1`, the IC50 in test [1] came out at 20 nM.

As for `CC(C)(CCCCOc1cc(-c2ccccc2)cc(-c2ccccc2)n1)c1nnnn1CCCCC(=O)NCCCOCCOCCOCCCNC(=O)[C@H](CS(=O)(=O)O)NC(=O)[C@H](CS(=O)(=O)O)NC(=O)[C@H](CS(=O)(=O)O)NC(=O)[C@H](CS(=O)(=O)O)NC(=O)c1ccc(N/N=C/c2ccccc2)nc1`, the IC50 in test [2] turned out to be 16 nM.

As for `CC(C)(CCCCOc1cc(-c2ccccc2)cc(-c2ccccc2)n1)c1nnnn1CCCCC(=O)NCCCOCCOCCOCCCNC(=O)[C@H](CS(=O)(=O)O)NC(=O)[C@H](CS(=O)(=O)O)NC(=O)[C@H](CS(=O)(=O)O)NC(=O)[C@H](CS(=O)(=O)O)NC(=O)CC[C@H](N)C(=O)N[C@@H](CS(=O)(=O)O)C(=O)N[C@@H](CS(=O)(=O)O)C(=O)N[C@@H](CS(=O)(=O)O)C(=O)N[C@@H](CS(=O)(=O)O)C(=O)NCCCOCCOCCOCCCNC(=O)CCCCn1nnnc1C(C)(C)CCCCOc1cc(-c2ccccc2)cc(-c2ccccc2)n1`, the 50% inhibitory concentration (IC50) in test [3] amounted to 8 nM.

In the case of `CC(C)(CCCCOc1cc(-c2ccccc2)cc(-c2ccccc2)n1)c1nnnn1CCCCC(=O)NCCCOCCOCCOCCCNC(=O)c1ccc(N/N=C/c2ccccc2S(=O)(=O)O)nc1`, the 50% inhibitory concentration (IC50) in test [4] came out at 45 nM; in test [2], 44 nM.

In test [2], `CC(C)(CCCCOc1cc(-c2ccccc2)cc(-c2ccccc2)n1)c1nnnn1CCCCC(=O)NCCCOCCOCCOCCCNC(=O)[C@H](CS(=O)(=O)O)NC(=O)[C@H](CS(=O)(=O)O)NC(=O)[C@H](CS(=O)(=O)O)NC(=O)[C@H](CS(=O)(=O)O)NC(=O)CC[C@H](NC(=O)c1ccc(N/N=C/c2ccccc2)nc1)C(=O)N[C@@H](CS(=O)(=O)O)C(=O)N[C@@H](CS(=O)(=O)O)C(=O)N[C@@H](CS(=O)(=O)O)C(=O)N[C@@H](CS(=O)(=O)O)C(=O)NCCCOCCOCCOCCCNC(=O)CCCCn1nnnc1C(C)(C)CCCCOc1cc(-c2ccccc2)cc(-c2ccccc2)n1` displayed an IC50 of 230 nM.

Regarding `CC(C)(CCCCOc1cc(-c2ccccc2)cc(-c2ccccc2)n1)c1nnnn1CCCCC(=O)NCCCOCCOCCOCCCNC(=O)[C@H](CS(=O)(=O)O)NC(=O)[C@H](CS(=O)(=O)O)NC(=O)[C@H](CS(=O)(=O)O)NC(=O)[C@H](CS(=O)(=O)O)NC(=O)CC[C@H](NC(=O)CN(CCN(CCN(CC(=O)O)CC(=O)O)CC(=O)O)CC(=O)O)C(=O)N[C@@H](CS(=O)(=O)O)C(=O)N[C@@H](CS(=O)(=O)O)C(=O)N[C@@H](CS(=O)(=O)O)C(=O)N[C@@H](CS(=O)(=O)O)C(=O)NCCCOCCOCCOCCCNC(=O)CCCCn1nnnc1C(C)(C)CCCCOc1cc(-c2ccccc2)cc(-c2ccccc2)n1`, the 50% inhibitory concentration (IC50) in test [2] stood at 30 nM; in test [3], 54 nM.

For the origin of these results see ChEMBL document CHEMBL1141115, “Synthesis of leukotriene B4 antagonists labeled with In-111 or Tc-99m to image infectious and inflammatory foci” (J Med Chem, 2005).
